US4201771A (priority 1979, dated 1980)
Where two headings read alike, the source gives them in different places.

Legend:
Assay type in all cases: in vivo
Piricularia oryzae [1] = settings: for Rice Blast Lesions per 5th Leaf: Table 2, protectant, untreated control 22; for Rice Blast Lesions/5th Leaf Protectant: Table 1, untreated 52
[2] = system: Rice, variety Calusa No. 2; experiment: Phytotoxicity / injury on rice in greenhouse bioassay; settings: Table 2, rice
Protocol: Host: Rice, variety Calusa No. 2.
Growth Conditions: Rice plants grown to 5 leaf stage in greenhouse on Swiss Farm Potting soil in 7 ounce styrafoam pots. Thinned to 3 seedlings per pot. Day temperature 20°-28° C.; night temperature 15°-20° C. Soluble 20--20--20 fertilizer applied weekly.
Treatment: Test solutions or suspensions of candidate compounds sprayed on both leaf surfaces to run-off with a No. 152 DiVilbiss atomizer at 10 psi. Formulations are prepared by dissolving compounds in methanol-Tween 20 mixture and bringing to volume with deionized water.

[3] = system: Puccinia recondita f. sp. tritici; settings: 1000 PPM; untreated 42
Piricularia oryzae [4] = settings: 1000 PPM; untreated 69
[5] = system: Puccinia recondita f. sp. tritici; settings: untreated 27
Phytophthora infestans = settings: untreated 84

In the case of `CCCCNC(=O)n1c(NC(=O)OC)nc2ccccc21` [Benomyl, [1-[(Butylamino)carbonyl]-1H-benzimidazol-2-yl]carbamic acid methyl ester], the “Rice Blast Lesions per 5th Leaf” value (Piricularia oryzae [1]; 1 PPM) was 4, the “Rice Blast Lesions per 5th Leaf” value (Piricularia oryzae [1]; 10 PPM) was 4 and the “Rice Blast Lesions per 5th Leaf” value (Piricularia oryzae [1]; 100 PPM) was 0.1. The “Remarks (plant injury)” value ([2]; 1 PPM) was “no injury”, the “Remarks (plant injury)” value ([2]; 10 PPM) was “no injury” and the “Remarks (plant injury)” value ([2]; 100 PPM) was “no injury”.
With `CC1=C(C(=O)Nc2ccccc2)SCCO1` [Carboxin, 5,6Dihydro-2-methyl-N-phenyl-1,4-oxathiin-3-carboxamide] the “Wheat Leaf Rust Pustules/Leaf Systemic” value [3] was 4.
In the case of `CCOP(=O)(Sc1ccccc1)Sc1ccccc1` [Hinosan, O-Ethyl 5,5-diphenylphosphorodithioate], the “Rice Blast Lesions/5th Leaf Protectant” value (Piricularia oryzae [1]; 1 PPM) was 16, the “Rice Blast Lesions/5th Leaf Protectant” value (Piricularia oryzae [1]; 10 PPM) was 8 and the “Rice Blast Lesions/5th Leaf Protectant” value (Piricularia oryzae [1]; 100 PPM) was under 1. For the same molecule, the “Rice Blast Lesions/5th Leaf Systemic” value (Piricularia oryzae [4]) was 31.
`S=C([S-])NCCNC(=S)[S-].[Mn+2]` [Maneb, [[1,2-Ethanediylbis[carbamodithioato]]-(2-)]manganese] was tested, and the “Wheat Leaf Rust Pustules/Leaf Protectant” value ([5]; 1 PPM) was 20, the “Wheat Leaf Rust Pustules/Leaf Protectant” value ([5]; 10 PPM) was 12 and the “Wheat Leaf Rust Pustules/Leaf Protectant” value ([5]; 100 PPM) was 0. For the same molecule, the “Late Blight (Tomato) Phytophthora % Leaf Necrosis Protectant” value (Phytophthora infestans; 1 PPM) was 77%, the “Late Blight (Tomato) Phytophthora % Leaf Necrosis Protectant” value (Phytophthora infestans; 10 PPM) was 63% and the “Late Blight (Tomato) Phytophthora % Leaf Necrosis Protectant” value (Phytophthora infestans; 100 PPM) was 11%.
